Experimental data taken from US10160747B2, “Compounds and methods for kinase modulation, and indications therefor” (Plexxikon Inc., priority 2016, dated 2018).

Tests used:
BA/F3-FLT3-ITD + D835Y = target: T1, BA/F3-FLT3-ITD + D835Y (Homo sapiens, UniProt P36888, D835Y, cells depend on it, form not given); experiment: Engineered BA/F3 cell growth assay, FLT3 ITD/D835Y; type: cell-based, murine; details: 3 d growth
T1 sequence (P36888 with tags, fused parts or gaps INS600HVDFREYEYD/D835Y): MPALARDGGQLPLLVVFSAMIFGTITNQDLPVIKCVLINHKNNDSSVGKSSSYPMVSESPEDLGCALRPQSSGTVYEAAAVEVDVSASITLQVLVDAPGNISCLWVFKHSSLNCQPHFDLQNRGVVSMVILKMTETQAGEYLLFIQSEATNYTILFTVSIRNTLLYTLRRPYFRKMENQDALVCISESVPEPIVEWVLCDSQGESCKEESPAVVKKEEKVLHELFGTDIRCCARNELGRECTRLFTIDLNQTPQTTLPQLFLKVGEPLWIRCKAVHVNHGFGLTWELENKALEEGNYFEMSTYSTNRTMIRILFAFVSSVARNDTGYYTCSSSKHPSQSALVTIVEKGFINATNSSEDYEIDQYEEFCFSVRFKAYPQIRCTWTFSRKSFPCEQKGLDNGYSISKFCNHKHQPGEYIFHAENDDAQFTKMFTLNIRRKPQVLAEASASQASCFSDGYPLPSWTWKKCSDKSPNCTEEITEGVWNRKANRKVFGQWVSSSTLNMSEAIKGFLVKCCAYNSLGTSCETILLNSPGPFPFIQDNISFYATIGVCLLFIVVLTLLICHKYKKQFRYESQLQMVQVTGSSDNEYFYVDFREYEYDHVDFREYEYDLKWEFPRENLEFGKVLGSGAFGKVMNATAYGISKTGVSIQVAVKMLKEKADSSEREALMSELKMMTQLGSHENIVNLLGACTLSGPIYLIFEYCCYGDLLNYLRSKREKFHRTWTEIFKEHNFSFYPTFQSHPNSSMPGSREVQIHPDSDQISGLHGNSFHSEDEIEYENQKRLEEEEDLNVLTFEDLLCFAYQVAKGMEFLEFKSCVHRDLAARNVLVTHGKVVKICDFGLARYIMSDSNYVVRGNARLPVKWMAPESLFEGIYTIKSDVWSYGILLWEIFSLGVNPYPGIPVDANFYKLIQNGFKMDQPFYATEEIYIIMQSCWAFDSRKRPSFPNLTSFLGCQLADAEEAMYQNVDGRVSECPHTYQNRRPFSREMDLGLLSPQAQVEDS
Procedure, shortened: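 Murine Ba/F3 cells transfected with full-length FLT3 ITD/D835Y, grown without IL-3 so growth depends on FLT3. Seeded at 1×10^4 cells/well, 8-point 1:3 series to 1 μM top (0.2% DMSO), 3 days at 37 °C. CellTiter-Glo luminescence (ATP) versus concentration gave IC50.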

CSF1R = CSF1R (Homo sapiens, UniProt P07333); experiment: CSF1R 100 ATP 8 pt kinase assay (Table 6); type: biochemical
Chain of CSF1R (P07333 20-972, species assumed): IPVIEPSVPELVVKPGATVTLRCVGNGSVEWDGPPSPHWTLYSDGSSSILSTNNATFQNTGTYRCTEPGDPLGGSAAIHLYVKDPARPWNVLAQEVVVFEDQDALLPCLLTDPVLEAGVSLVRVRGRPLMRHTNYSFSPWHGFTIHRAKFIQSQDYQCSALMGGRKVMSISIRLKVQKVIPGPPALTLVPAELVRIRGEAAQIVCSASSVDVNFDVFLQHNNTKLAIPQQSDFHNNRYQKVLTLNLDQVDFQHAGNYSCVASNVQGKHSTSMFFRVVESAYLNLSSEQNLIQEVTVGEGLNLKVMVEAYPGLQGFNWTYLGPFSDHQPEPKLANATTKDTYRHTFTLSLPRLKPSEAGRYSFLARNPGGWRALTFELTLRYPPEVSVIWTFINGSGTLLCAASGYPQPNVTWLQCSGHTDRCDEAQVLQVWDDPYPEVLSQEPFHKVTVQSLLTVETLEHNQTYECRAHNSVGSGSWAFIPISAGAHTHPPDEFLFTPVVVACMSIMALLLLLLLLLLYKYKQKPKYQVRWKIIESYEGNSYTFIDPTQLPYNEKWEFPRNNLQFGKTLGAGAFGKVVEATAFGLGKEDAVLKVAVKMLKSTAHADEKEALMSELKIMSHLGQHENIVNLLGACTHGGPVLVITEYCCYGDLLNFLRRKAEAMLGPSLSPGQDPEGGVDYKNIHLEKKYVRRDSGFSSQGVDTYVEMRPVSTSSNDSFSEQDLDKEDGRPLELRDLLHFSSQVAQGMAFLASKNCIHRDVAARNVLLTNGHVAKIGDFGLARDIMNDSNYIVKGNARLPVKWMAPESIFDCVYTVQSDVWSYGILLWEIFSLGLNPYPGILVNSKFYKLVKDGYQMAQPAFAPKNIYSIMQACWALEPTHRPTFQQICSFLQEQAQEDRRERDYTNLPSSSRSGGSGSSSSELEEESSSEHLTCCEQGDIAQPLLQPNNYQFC
Description: The following Table 6 provides data indicating FLT3 ITD, D835Y and F691L; c-KIT and CSF1R biochemical and/or cell inhibitory activity for exemplary compounds as described herein.

Structure (SMILES)	GI50 (BA/F3-FLT3-ITD + D835Y) [µM]	IC50 (CSF1R) [µM]
CCOc1n[nH]c2ncc(-c3ccc(CC(=O)Nc4cnc(OC)c(C(F)(F)F)c4)cc3)cc12 [Compound P-0213, 2-(4-(3-ethoxy-1H-pyrazolo[3,4-b]pyridin-5-yl)phenyl)-N-(6-methoxy-5-(trifluoromethyl)pyridin-3-yl)acetamide]	0.0001 to 10	0.0001 to 10
COc1ncc(NC(=O)Cc2ccc(-c3cnc4[nH]nc(NC(=O)C(F)(F)F)c4c3)cc2)cc1C(F)(F)F [Compound P-0215, 2,2,2-trifluoro-N-[5-[4-[2-[[6-methoxy-5-(trifluoromethyl)-3-pyridyl]amino]-2-oxo-ethyl]phenyl]-1H-pyrazolo[3,4-b]pyridin-3-yl]acetamide]	0.0001 to 10	0.0001 to 10
COc1ncc(NC(=O)Cc2ccc(-c3cnc4[nH]nc(N)c4c3)cc2)cc1C(F)(F)F [Compound P-0216, 2-(4-(3-amino-1H-pyrazolo[3,4-b]pyridin-5-yl)phenyl)-N-(6-methoxy-5-(trifluoromethyl)pyridin-3-yl)acetamide]	0.0001 to 10	0.0001 to 10
CCOc1n[nH]c2ncc(-c3ccc(CC(=O)Nc4cnc(C)c(C(F)(F)F)c4)cc3)cc12 [Compound P-0217, 2-[4-(3-ethoxy-1H-pyrazolo[3,4-b]pyridin-5-yl)phenyl]-N-[6-methyl-5-(trifluoromethyl)-3-pyridyl]acetamide]	0.0001 to 10	0.0001 to 10
COc1n[nH]c2ncc(-c3ccc(CC(=O)Nc4cnc(C)c(C(F)(F)F)c4)cc3)cc12 [Compound P-0218, 2-[4-(3-methoxy-1H-pyrazolo[3,4-b]pyridin-5-yl)phenyl]-N-[6-methyl-5-(trifluoromethyl)-3-pyridyl]acetamide]	0.0001 to 10	0.0001 to 10
Cc1ncc(NC(=O)Cc2ccc(-c3cnc4[nH]c(C#CC(C)(C)O)cc4c3)cc2)cc1C(F)(F)F [Compound P-0220, 2-[4-[2-(3-hydroxy-3-methyl-but-1-ynyl)-1H-pyrrolo[2,3-b]pyridin-5-yl]phenyl]-N-[6-methyl-5-(trifluoromethyl)-3-pyridyl]acetamide]	0.0001 to 10	0.0001 to 10
COc1ncc(NC(=O)Cc2ccc(-c3cnc4[nH]nc(Cl)c4c3)cc2)cc1C(F)(F)F [Compound P-0230, 2-[4-(3-chloro-1H-pyrazolo[3,4-b]pyridin-5-yl)phenyl]-N-[6-methoxy-5-(trifluoromethyl)-3-pyridyl]acetamide]	0.0001 to 10	0.0001 to 10
